Reference: the OPERA property sets (Mansouri et al. 2018)
Converted amounts (≈) assume the structure as drawn.

details: 25 °C

| SMILES | solubility [µM] |
| --- | --- |
| CCCCCCCc1ccccc1 | 2.54 (≈ 0.447 µg/mL) |
| Clc1cccc2ccccc12 | 107 (≈ 17.4 µg/mL) |
| Fc1cccc2ccccc12 | 353 (≈ 51.5 µg/mL) |
| CCCCCCCCC(C)=O | 491 (≈ 76.8 µg/mL) |
| Fc1ccc(CCl)cc1 | 2860 (≈ 413 µg/mL) |
| Cc1c(C)c(C)c(C)c(C)c1C | 1.45 (≈ 0.235 µg/mL) |
| CC(=O)OCCBr | 212000 (≈ 35400 µg/mL) |
| CCCCCCCCc1ccccc1 | 0.347 (≈ 0.066 µg/mL) |
| CCCCCCCC(C)=O | 2610 (≈ 371 µg/mL) |
| Cc1ccc(C)c(O)c1C | 11600 (≈ 1580 µg/mL) |
| CCCCCCCCC(=O)OC | 133 (≈ 22.9 µg/mL) |
| CC(Br)CCl (configuration not stated) | 14200 (≈ 2240 µg/mL) |
